# Tests used:
# H1299 cells = assay: Cell cycle analysis by flow cytometry; assay type: cell-based; settings: 0, 2, 4, and 6 μM, dose-dependent
# Protocol: A549 and H1299 cells were plated at 1 × 10^5 cells per well of a 6-well plate. Cell cycle was carried out as previously described (Vesuna et al, [2012]). Briefly, cells were trypsinized 24 h after plating and fixed in 70% ethanol overnight at −20°C. Fixed cells were washed with PBS and resuspended in DNA-staining solution (5 μg/ml propidium iodide, 0.5 mg/ml RNase A) for 1 h at room temperature. Cell cycle acquisition was performed on a FACScan I or FACSCalibur instrument (BD Biosciences, San Jose, CA, USA). Independent experiments were repeated three times. Data were analyzed using FlowJo software (Tree Star Inc., Ashland, OR, USA).
# [1] = system: A549 human lung cancer cells; assay: Orthotopic A549 lung cancer model with radiation; assay type: in vivo, athymic NCr-nu/nu mice; settings: i.p. RK-33 with radiation, schedule as Fig6C
# Protocol: Athymic NCr-nu/nu female mice 4–5 weeks old were purchased from NCI Frederick. A total of 1 × 10^6 A549 cells were injected in the tail vein of ten mice. Treatment (five animals per group) was started 4 weeks after inoculation of tumor cells. Since tumor volumes could not be determined by micro-CT, tumor burden was established at necropsy by histopathology, 8 weeks after inoculation of tumor cells. All five lung lobes were paraffin-embedded and mid-lung sections were stained with H&E. Slides were digitalized; lung and tumor surface area was calculated with ImageScope (Aperio Technologies, Vista, CA, USA), as tumor burden = tumor surface/lung surface.
# Cells were irradiated at room temperature with 0.5 Gy/min to the desired dose using a Gammacell 40 ^137Cs irradiator. For in vivo experiments, mice were treated using the Small Animal Radiation Research Platform (Wong et al, [2008]). The tumors were irradiated with a circular beam of 1 cm diameter.
# [2] = Toxicology in SCID mice (histopathology, blood values); assay type: in vivo
# Protocol: Figure 5 Toxicity studies of RK-33 in mice • Following injection of 20 mg/kg of RK-33, twice a week for 7 weeks, extensive histopathological examination was carried out following necropsy. Identical patterns were observed both in the control and in the treated mice (n = 2). Samples were stained with H&E. Scale bar is 50 μm. • Pharmacokinetics of RK-33 in SCID mice at various time intervals. Results are mean ± SD from 5 mice. LC-MS/MS method was used to determine concentration of RK-33 in mouse plasma and tissue. • Liquid chromatography–mass spectrometry (LC-MS/MS) analysis was performed to determine different metabolites of RK-33. • RK-33 and metabolites characterized by LC-MS/MS in human liver microsomes using the scan mode function of the LC-MS/MS. • HAPI cells were treated with RK-33 (10 μM), HA14-1 (25 μM), or DMSO vehicle, followed by oligomycin (oligo, 0.5 μg/ml), FCCP (3 μM), and antimycin A (AA, 1 μM) while oxygen consumption rate (OCR) was measured. Pyruvate (10 mM) was added in combination with FCCP to ensure that substrate supply was not rate-limiting for maximal OCR. Data are mean ± SD from 2 to 3 wells and representative of independent experiments performed with two different HAPI passages. OCR is baseline-normalized to the point prior to drug or vehicle addition. • HAPI microglial cells were incubated for 1 h in glucose-free XF24 assay medium that was supplemented with 2-deoxyglucose (50 mM) and pyruvate (10 mM). RK-33 (10 μM), oligomycin (0.5 μg/ml), or vehicle control was additionally present as indicated. Results are mean ± SD from 12 replicates pooled from experiments using two consecutive passages. Significance was assessed by two-sided, unpaired t-test. TEXT PRINTED IN THE PICTURE: (B) RK-33: t½e (hours): 7.31 ± 1.16 (Organ: plasma); t½e (hours): 6.70 ± 1.17 (Organ: kidney); t½e (hours): 10.01 ± 1.24 (Organ: liver); t½e (hours): 8.92 ± 1.45 (Organ: spleen); t½e (hours): 7.48 ± 1.18 (Organ: breast); t½e (hours): 7.25 ± 1.25 (Organ: lung); t½e (hours): 6.72 ± 1.23 (Organ: brain); t½e (hours): 6.25 ± 1.19 (Organ: muscle) | (C) RK-33: Mouse Microsomes + NADPH: 100% (Inc. Time: 0); Mouse Microsomes - NADPH: 100% (Inc. Time: 0); Human Microsomes + NADPH: 100% (Inc. Time: 0); Human Microsomes - NADPH: 100% (Inc. Time: 0); Mouse Microsomes + NADPH: 11% (Inc. Time: 30); Mouse Microsomes - NADPH: 80% (Inc. Time: 30); Human Microsomes + NADPH: 49% (Inc. Time: 30); Human Microsomes - NADPH: 85% (Inc. Time: 30); Mouse Microsomes + NADPH: 4% (Inc. Time: 60); Mouse Microsomes - NADPH: 69% (Inc. Time: 60); Human Microsomes + NADPH: 35% (Inc. Time: 60); Human Microsomes - NADPH: 73% (Inc. Time: 60) DOUBTS OF THE COPYIST ABOUT THIS PICTURE: Panel C prints no substance label of its own; RK-33 is taken from the other panels of the same picture / Panel C prints no unit for Inc. Time / Panel B, column head: read as t½e (hours), small print; the sign after t may be 1/2 e / Panel D (retention times and [M+H]+ of RK-33 and peaks M1-M3) was left out as LC-MS data
# DDX3 = DDX3 (Homo sapiens, UniProt O00571); assay: Biotin bead pull-down assay with biotinylated RK-33 (AK-298, SK-153), immunoblot; assay type: binding; settings: biotinylated RK-33 molecules, 10 μM
# Sequence of DDX3 (O00571 2-582): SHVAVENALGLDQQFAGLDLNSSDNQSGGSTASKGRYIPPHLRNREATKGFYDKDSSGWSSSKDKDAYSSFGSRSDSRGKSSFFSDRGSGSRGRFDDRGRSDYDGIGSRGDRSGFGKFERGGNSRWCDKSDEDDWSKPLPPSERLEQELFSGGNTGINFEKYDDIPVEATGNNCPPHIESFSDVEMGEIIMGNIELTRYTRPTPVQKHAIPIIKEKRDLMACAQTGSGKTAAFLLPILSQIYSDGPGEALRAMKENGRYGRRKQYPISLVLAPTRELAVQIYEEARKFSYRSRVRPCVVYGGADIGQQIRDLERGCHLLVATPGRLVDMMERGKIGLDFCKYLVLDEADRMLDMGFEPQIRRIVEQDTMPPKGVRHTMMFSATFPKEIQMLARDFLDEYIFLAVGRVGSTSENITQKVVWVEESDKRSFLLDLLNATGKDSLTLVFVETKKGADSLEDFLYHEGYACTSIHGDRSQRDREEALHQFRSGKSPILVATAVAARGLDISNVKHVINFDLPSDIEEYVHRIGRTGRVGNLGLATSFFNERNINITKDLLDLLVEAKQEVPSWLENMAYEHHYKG
# Protocol: Mean from 3 replicates with SD. • J, K Colony-forming assay of A549 and H3255 cells treated with RK-33 and with various doses of radiation 4 h later. Curves were fitted with a quadratic polynomial equation. Mean from 2 replicates with SD. P-values were determined by the extra sum of squares F-test. Source data are available online for this figure.
# Two plates of 70% confluent cells were lysed with IP lysis buffer (Tris–HCl (pH 7.4) 25 mM, NaCl 150 mM, EDTA 1 mM, NP-40 1%, glycerol 5%, protease inhibitor). […] Streptavidin beads were added and incubated for 1 h at room temperature. The biotin-bead–RK-33 complex was extracted with a magnetic stand and washed seven times with PBS. Proteins were analyzed by immunoblot.
substance,measurement,setting,value
"diimidazo[4,5-d:4′,5′-f]-[1,3]diazepine [RK-33]",cell cycle effect,H1299 cells,G1 arrest
same,enhancement of radiation-induced tumor regression (tumor burden),[1],2.6 fold
same,toxicity at the dose used,[2]; SCID mice,non-toxic
same,ALP,"[2]; mouse, in vivo",69 ± 5 U/l
same,ALT,"[2]; mouse, in vivo",72 ± 34 U/l
same,AST,"[2]; mouse, in vivo",224 ± 152 U/l
same,Albumin,"[2]; mouse, in vivo",3.05 ± 0.05 g/dL
same,Amylase,"[2]; mouse, in vivo",905 ± 42 U/l
same,BUN,"[2]; mouse, in vivo",22 ± 2.0 mg/dL
same,Calcium,"[2]; mouse, in vivo",9.1 ± 0.2 mg/dL
same,Cholesterol,"[2]; mouse, in vivo",120 ± 1 mg/dL
same,Creatinine,"[2]; mouse, in vivo",0.35 ± 0.05 mg/dL
same,Glucose,"[2]; mouse, in vivo",166 ± 4 mg/dL
same,Hb,"[2]; mouse, in vivo",14.7 ± 0.6 g/dL
same,MCV,"[2]; mouse, in vivo",55.1 ± 1.3 fL
same,RBC,"[2]; mouse, in vivo",10.01 ± 0.77 M/μl
same,Thrombocytes,"[2]; mouse, in vivo",746 ± 185 K/μl
same,Triglycerides,"[2]; mouse, in vivo",215 ± 14 mg/dL
same,WBC,"[2]; mouse, in vivo",5.83 ± 2.61 K/μl
same,binding to DDX3 in pull-down,DDX3,binds specifically to DDX3

# — PMC4492822 (EMBO Molecular Medicine, 2015)
